Test results from patent US20190321426A1, “COMBINATION THERAPIES WITH CANNABIS PLANT EXTRACT” (TIKUN OLAM LTD, priority 2016, published 2019).

Test: Cutaneous wound (skin lesion) at the site of repeated s.c. Copaxone injection in EAE mice
Assay type: in vivo
Conditions: s.c. injection on the mice back; 7 mice/group
Experimental: The treatments were given daily, five times a week and usually continued for about 60 days. GA were given s.c (at an injection dose of 1 mg/mouse), and cannabis extracts were administrated i.p. (intraperitoneal).
In mice treated with the Copaxone only (2 out of 7 mice), a skin lesion developed on the mice back at the site of repeated Copaxone injections.

glatiramer acetate [Copaxone]
skin lesion at the site of repeated Copaxone injections: 2 out of 7
